# According to publication PMC9090415, “Discovery of small molecule inhibitors of Plasmodium falciparum apicoplast DNA polymerase” (Journal of Enzyme Inhibition and Medicinal Chemistry, 2022):
# Biological target: P. falciparum apicoplast DNA polymerase (Pf-apPOL) (Plasmodium falciparum, UniProt Q8ILY1)
# Test: Fluorescence-based high-throughput DNA polymerase assay (molecular beacon), primary screen and dose-response
# Assay type: biochemical
# How it was run: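 Single-point screening used 10 µM compound with 20 nM polymerase, 20 nM hairpin substrate and 6 µM dNTPs for 90 min at 25 °C. Confirmatory titrations (2.5–80 µM) followed fluorescence at three times, and IC50 was derived from a fit including a cooperativity term n.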
# [1] = supplemental file 2, sheet IC50 nontoxic compounds; Pf-apPOL
# Sequence of P. falciparum apicoplast DNA polymerase (Pf-apPOL) (Q8ILY1 entry or part of it): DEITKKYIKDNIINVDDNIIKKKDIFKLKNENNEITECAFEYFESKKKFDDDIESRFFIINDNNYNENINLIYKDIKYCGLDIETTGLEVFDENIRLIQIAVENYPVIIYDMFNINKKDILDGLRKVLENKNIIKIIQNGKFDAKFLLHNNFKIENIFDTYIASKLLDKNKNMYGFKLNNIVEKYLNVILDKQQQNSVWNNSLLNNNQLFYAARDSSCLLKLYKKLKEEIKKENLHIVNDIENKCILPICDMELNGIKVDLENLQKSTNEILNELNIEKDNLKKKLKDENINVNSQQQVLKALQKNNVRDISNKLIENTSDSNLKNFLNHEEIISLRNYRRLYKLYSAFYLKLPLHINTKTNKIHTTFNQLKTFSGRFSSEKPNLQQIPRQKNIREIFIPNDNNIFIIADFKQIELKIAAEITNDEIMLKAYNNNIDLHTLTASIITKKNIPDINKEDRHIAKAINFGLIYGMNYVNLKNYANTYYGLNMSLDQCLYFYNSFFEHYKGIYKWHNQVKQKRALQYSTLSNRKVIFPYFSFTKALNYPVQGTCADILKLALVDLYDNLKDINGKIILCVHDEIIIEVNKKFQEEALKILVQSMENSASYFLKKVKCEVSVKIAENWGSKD
structure (smiles),measurement,setting,value
"CN(C)C=C1SCc2ccccc2C1=O [Molecule 77, CN(C=C1SCc2c(C1=O)cccc2)C]",DNA Pol,"'DNA Pol'; screening value, unit not given; 90 min, 10 µM",85
same,% inhibition Apo pol 10',DRC-1; 10'; concentration 2.5,11.5763%
same,% inhibition Apo pol 10',DRC-1; 10'; concentration 5,16.7667%
same,% inhibition Apo pol 10',DRC-1; 10'; concentration 10,31.6418%
same,% inhibition Apo pol 10',DRC-1; 10'; concentration 20,51.9221%
same,% inhibition Apo pol 10',DRC-1; 10'; concentration 40,56.5642%
same,% inhibition Apo pol 10',DRC-1; 10'; concentration 80,84.5209%
same,% inhibition Apol 90',DRC-1; 90'; concentration 2.5,2.782%
same,% inhibition Apol 90',DRC-1; 90'; concentration 5,3.396%
same,% inhibition Apol 90',DRC-1; 90'; concentration 10,10.9684%
same,% inhibition Apol 90',DRC-1; 90'; concentration 20,24.755%
same,% inhibition Apol 90',DRC-1; 90'; concentration 40,26.7268%
same,% inhibition Apol 90',DRC-1; 90'; concentration 80,62.9199%
same,% inhibition apPOL 180',DRC-1; 180'; concentration 2.5,-2.727%
same,% inhibition apPOL 180',DRC-1; 180'; concentration 5,-5.416%
same,% inhibition apPOL 180',DRC-1; 180'; concentration 10,0.7299%
same,% inhibition apPOL 180',DRC-1; 180'; concentration 20,8.887%
same,% inhibition apPOL 180',DRC-1; 180'; concentration 40,10.8248%
same,% inhibition apPOL 180',DRC-1; 180'; concentration 80,43.5104%
same,% inhibition Apo pol 5',"DRC-2, 5', concentration 2.5",2.65%
same,% inhibition Apo pol 5',"DRC-2, 5', concentration 5",5.48%
same,% inhibition Apo pol 5',"DRC-2, 5', concentration 10",20%
same,% inhibition Apo pol 5',"DRC-2, 5', concentration 20",33%
same,% inhibition Apo pol 5',"DRC-2, 5', concentration 40",41%
same,% inhibition Apo pol 5',"DRC-2, 5', concentration 80",52%
same,% inhibition Apol 40',"DRC-2, 40', concentration 2.5",2%
same,% inhibition Apol 40',"DRC-2, 40', concentration 5",4%
same,% inhibition Apol 40',"DRC-2, 40', concentration 10",13%
same,% inhibition Apol 40',"DRC-2, 40', concentration 20",26%
same,% inhibition Apol 40',"DRC-2, 40', concentration 40",34%
same,% inhibition Apol 40',"DRC-2, 40', concentration 80",57%
same,% inhibition ApPOL 90',"DRC-2, 90', concentration 2.5",0.807%
same,% inhibition ApPOL 90',"DRC-2, 90', concentration 5",1%
same,% inhibition ApPOL 90',"DRC-2, 90', concentration 10",8%
same,% inhibition ApPOL 90',"DRC-2, 90', concentration 20",18%
same,% inhibition ApPOL 90',"DRC-2, 90', concentration 40",26%
same,% inhibition ApPOL 90',"DRC-2, 90', concentration 80",54%
same,% inhibition apPOL 180',"DRC-2, 180', concentration 2.5",-3%
same,% inhibition apPOL 180',"DRC-2, 180', concentration 5",-3.45%
same,% inhibition apPOL 180',"DRC-2, 180', concentration 10",0.193%
same,% inhibition apPOL 180',"DRC-2, 180', concentration 20",7.49%
same,% inhibition apPOL 180',"DRC-2, 180', concentration 40",14%
same,% inhibition apPOL 180',"DRC-2, 180', concentration 80",45%
same,% inhibition Apol 40',conc 20 (unit not given); 40'; DRC-2,26%
same,% inhibition ApPOL 90',conc 40 (unit not given); 90'; DRC-2,26%
same,DNA Pol,"primary screen hit value, DNA Pol (186 hits); 90 min, 10 µM",85
CN(C)C=C1SCc2ccccc2C1=O [Molecule 77],IC50,[1],23.7 µM
"CCN1C(=O)C(=Cc2cccc(OC)c2O)SC1=S [Molecule 78, CCN1C(=S)SC(=Cc2cccc(c2O)OC)C1=O]",% inhibition Apo pol 10',DRC-1; 10'; concentration 2.5,-5.558%
same,% inhibition Apo pol 10',DRC-1; 10'; concentration 5,-7.622%
same,% inhibition Apo pol 10',DRC-1; 10'; concentration 10,-2.049%
same,% inhibition Apo pol 10',DRC-1; 10'; concentration 20,2.662%
same,% inhibition Apo pol 10',DRC-1; 10'; concentration 40,14.6723%
same,% inhibition Apo pol 10',DRC-1; 10'; concentration 80,44.8696%
same,% inhibition Apol 90',DRC-1; 90'; concentration 2.5,-2.637%
same,% inhibition Apol 90',DRC-1; 90'; concentration 5,-1.279%
same,% inhibition Apol 90',DRC-1; 90'; concentration 10,7.892%
same,% inhibition Apol 90',DRC-1; 90'; concentration 20,13.9946%
same,% inhibition Apol 90',DRC-1; 90'; concentration 40,28.6027%
same,% inhibition Apol 90',DRC-1; 90'; concentration 80,61.7186%
same,% inhibition apPOL 180',DRC-1; 180'; concentration 2.5,5.183%
same,% inhibition apPOL 180',DRC-1; 180'; concentration 5,11.9919%
same,% inhibition apPOL 180',DRC-1; 180'; concentration 10,27.7441%
same,% inhibition apPOL 180',DRC-1; 180'; concentration 20,33.831%
same,% inhibition apPOL 180',DRC-1; 180'; concentration 40,51.4318%
same,% inhibition apPOL 180',DRC-1; 180'; concentration 80,79.6969%
same,% inhibition Apo pol 5',"DRC-2, 5', concentration 2.5 (unit not given)",8%
same,% inhibition ApPOL 90',"DRC-2, 90', concentration 20 (unit not given)",8%
same,% inhibition Apo pol 5',DRC-2; 5'; concentration 2.5,8%
same,% inhibition Apo pol 5',DRC-2; 5'; concentration 5,3.24%
same,% inhibition Apo pol 5',DRC-2; 5'; concentration 10,14%
same,% inhibition Apo pol 5',DRC-2; 5'; concentration 20,21%
same,% inhibition Apo pol 5',DRC-2; 5'; concentration 40,38%
same,% inhibition Apo pol 5',DRC-2; 5'; concentration 80,40%
same,% inhibition Apol 40',DRC-2; 40'; concentration 2.5,2.6%
same,% inhibition Apol 40',DRC-2; 40'; concentration 5,-11%
same,% inhibition Apol 40',DRC-2; 40'; concentration 10,9%
same,% inhibition Apol 40',DRC-2; 40'; concentration 20,12%
same,% inhibition Apol 40',DRC-2; 40'; concentration 40,39%
same,% inhibition Apol 40',DRC-2; 40'; concentration 80,41%
same,% inhibition ApPOL 90',DRC-2; 90'; concentration 2.5,-1.1%
same,% inhibition ApPOL 90',DRC-2; 90'; concentration 5,-22%
same,% inhibition ApPOL 90',DRC-2; 90'; concentration 10,5.68%
same,% inhibition ApPOL 90',DRC-2; 90'; concentration 20,8%
same,% inhibition ApPOL 90',DRC-2; 90'; concentration 40,35%
same,% inhibition ApPOL 90',DRC-2; 90'; concentration 80,36%
same,% inhibition apPOL 180',DRC-2; 180'; concentration 2.5,-5.52%
same,% inhibition apPOL 180',DRC-2; 180'; concentration 5,-102%
same,% inhibition apPOL 180',DRC-2; 180'; concentration 10,-2.72%
same,% inhibition apPOL 180',DRC-2; 180'; concentration 20,-1.34%
same,% inhibition apPOL 180',DRC-2; 180'; concentration 40,23%
same,% inhibition apPOL 180',DRC-2; 180'; concentration 80,25%
same,DNA Pol,"primary screen value of the 186 hits; unit not given; 90 min, 10 µM",43
same,DNA Pol,"primary screen value, head ""DNA Pol"", unit not given; 90 min, 10 µM",43
CCN1C(=O)C(=Cc2cccc(OC)c2O)SC1=S [Molecule 78],IC50,[1],35 µM
